Reference: ChEMBL document CHEMBL1133535, “Pyrido[2,3-d]pyrimidin-7-one inhibitors of cyclin-dependent kinases” (J Med Chem, 2000)
pIC50: −log10 of the molar value.

Assays:
[1] = target: Cyclin-dependent kinase 4/cyclin D (Homo sapiens, UniProt P11802); experiment: Inhibition of Cyclin-dependent kinase 4-cyclin D; assay type: protein-complex assay
[2] = target: Fibroblast growth factor receptor (Homo sapiens, UniProt P22607+P11362+P22455+P21802); experiment: Inhibition of Fibroblast growth factor receptor (FGFr); assay type: protein assay
[3] = target: Cyclin-dependent kinase 1/cyclin B (Homo sapiens, UniProt P06493); experiment: Inhibition of Cyclin-dependent kinase 1-cyclin B; assay type: protein-complex assay
HCT-116 = experiment: Inhibition of HCT116 human colon carcinoma cell proliferation; assay type: functional, cell-based
[4] = target: Cyclin-dependent kinase 2/cyclin E (Homo sapiens, UniProt P24941); experiment: Inhibition of Cyclin-dependent kinase 2-cyclin E; assay type: protein-complex assay
[5] = target: Cyclin-dependent kinase 2/cyclin A (Homo sapiens, UniProt P24941); experiment: Inhibition of Cyclin-dependent kinase 2-cyclin A; assay type: protein-complex assay
[6] = target: Proto-oncogene tyrosine-protein kinase Src (Homo sapiens, UniProt P12931); experiment: Inhibition of c-Src tyrosine kinase
Sequence of Proto-oncogene tyrosine-protein kinase Src (P12931 2-536 limits assumed): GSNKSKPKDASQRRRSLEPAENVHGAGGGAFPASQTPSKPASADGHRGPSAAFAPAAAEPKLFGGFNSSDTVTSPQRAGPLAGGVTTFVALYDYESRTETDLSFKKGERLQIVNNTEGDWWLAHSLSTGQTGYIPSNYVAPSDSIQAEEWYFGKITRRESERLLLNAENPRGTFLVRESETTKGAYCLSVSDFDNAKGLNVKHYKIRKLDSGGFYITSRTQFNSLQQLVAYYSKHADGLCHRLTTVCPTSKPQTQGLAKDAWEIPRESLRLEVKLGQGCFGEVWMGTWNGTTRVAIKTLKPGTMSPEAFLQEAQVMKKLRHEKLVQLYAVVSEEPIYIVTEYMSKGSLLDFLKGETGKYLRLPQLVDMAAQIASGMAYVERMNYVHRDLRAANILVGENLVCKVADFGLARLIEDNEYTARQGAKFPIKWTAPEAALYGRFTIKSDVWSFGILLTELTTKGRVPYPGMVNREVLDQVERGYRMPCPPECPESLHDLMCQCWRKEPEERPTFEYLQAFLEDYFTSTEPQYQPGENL

Row | Structure (SMILES) | pIC50 [1] | further results
1 | CCn1c(=O)ccc2cnc(Nc3ccc(O)c(OC)c3)nc21 | 5.74 | 
2 | O=c1ccc2cnc(Nc3ccc(N4CCC(CCCO)CC4)cc3)nc2n1C1CC2CCC1C2 (stereo not drawn) | 8.10 | IC50 [2]: 8620 nM; pIC50 [3]: < 4.40; pIC50 (HCT-116): 6.67; pIC50 [4]: 6.78; pIC50 [5]: 6.68
3 | CCOCCn1c(=O)ccc2cnc(Nc3ccccc3)nc21 | 5.11 | 
4 | CCN(CC)c1ccc(Nc2ncc3ccc(=O)n(CC)c3n2)cc1 | 5.85 | 
5 | CCn1c(=O)ccc2cnc(Nc3ccc(-n4cccc4)cc3)nc21 | 5.56 | 
6 | CCCn1c(=O)ccc2cnc(Nc3ccccc3)nc21 |  | IC50 [2]: 6600 nM
7 | CCn1c(=O)ccc2cnc(Nc3ccc(OC)c(OC)c3)nc21 | 5.39 | 
8 | CN1CCN(c2ccc(Nc3ncc4ccc(=O)n(C5CCCCC5)c4n3)cc2)CC1 | 8.40 | IC50 [2]: 51 nM; pIC50 [4]: 7.70
9 | COCCn1c(=O)ccc2cnc(Nc3ccccc3)nc21 | 5.54 | 
10 | CCN(CC)CCOc1ccc(Nc2ncc3ccc(=O)n(C4CCCCCC4)c3n2)cc1 | 8.40 | 
11 | COCn1c(=O)ccc2cnc(Nc3ccccc3)nc21 | 5.38 | 
12 | CCn1c(=O)ccc2cnc(N(C)c3ccccc3)nc21 | < 4.40 | 
13 | CCn1c(=O)ccc2cnc(Nc3ccc(O)cc3)nc21 | 6.23 | 
14 | CCn1c(=O)ccc2cnc(NC(C)C)nc21 | 5.36 | 
15 | CCN(CC)CCOc1ccc(Nc2ncc3ccc(=O)n(C4CCCC4)c3n2)cc1 | 9.15 | 
16 | CCn1c(=O)ccc2cnc(Nc3ccccc3)nc21 | 6.21 | IC50 [2]: 3295 nM; pIC50 [6]: 4.68
17 | CC(C)n1c(=O)ccc2cnc(Nc3ccc(N4CCN(C)CC4)cc3)nc21 |  | IC50 [2]: 70 nM
18 | COC(=O)Cn1c(=O)ccc2cnc(Nc3ccccc3)nc21 | 4.51 | 
19 | CN1CCN(c2ccc(Nc3ncc4ccc(=O)n(-c5ccccc5)c4n3)cc2)CC1 | 6.76 | 
20 | CN1CCN(c2ccc(Nc3ncc4ccc(=O)n(CC(O)CO)c4n3)cc2)CC1 (stereo not drawn) | 5.78 | 
21 | CN1CCN(c2ccc(Nc3ncc4ccc(=O)n(C5CC5)c4n3)cc2)CC1 | 6.85 | 
22 | CN1CCN(c2ccc(Nc3ncc4ccc(=O)n(CCOCc5ccccc5)c4n3)cc2)CC1 | 5.68 | 

Row | Structure (SMILES) | pIC50 [1] | further results
23 | CCn1c(=O)ccc2cnc(Nc3cccc(OC(F)(F)C(F)F)c3)nc21 |  | IC50 [2]: 44200 nM
24 | CCn1c(=O)ccc2cnc(Nc3ccc(N4CCC(CCCO)CC4)cc3)nc21 | 6.05 | 
25 | CN1CCN(c2ccc(Nc3ncc4ccc(=O)n(C5CC6CCC5C6)c4n3)cc2)CC1 (stereo not drawn) | 8.22 | 
26 | CCn1c(=O)ccc2cnc(Nc3ccc(N4CCCCC4)cc3)nc21 | 6.52 | 
27 | CCn1c(=O)ccc2cnc(Nc3ccc(OCCN(C)C)cc3)nc21 | 6.48 | 
28 | CCn1c(=O)ccc2cnc(Nc3ccc(OCCOC)cc3)nc21 | 5.63 | 
29 | CCn1c(=O)ccc2cnc(Nc3cccc(OC)c3)nc21 | < 4.40 | 
30 | O=c1ccc2cnc(Nc3ccccc3)nc2n1CC1CCCCC1 | 4.87 | 
31 | CCC(C)n1c(=O)ccc2cnc(Nc3ccccc3)nc21 (stereo not drawn) | 6.72 | 
32 | CC(C)n1c(=O)ccc2cnc(Nc3ccccc3)nc21 | 6.84 | 
33 | O=c1ccc2cnc(Nc3ccc(N4CCC(CCCO)CC4)cc3)nc2n1C1CCCC1 | 7.47 | 
34 | CC(C)Cn1c(=O)ccc2cnc(Nc3ccccc3)nc21 | 6.53 | 
35 | CCN(CC)CCOc1ccc(Nc2ncc3ccc(=O)n(C4CC5CCC4C5)c3n2)cc1 (stereo not drawn) | 6.35 | 
36 | CCCCn1c(=O)ccc2cnc(Nc3ccccc3)nc21 |  | IC50 [2]: 5290 nM; pIC50 [3]: 5.70
37 | CCn1c(=O)ccc2cnc(Nc3ccncc3)nc21 | 5.93 | 
38 | CN1CCN(c2ccc(Nc3ncc4ccc(=O)n(C5CCCC5)c4n3)cc2)CC1 | 8.05 | 
39 | CCN(CC)CCOc1ccc(Nc2ncc3ccc(=O)n(C4CCCCC4)c3n2)cc1 | 7.96 | 
40 | O=c1ccc2cnc(Nc3ccccc3)nc2n1-c1ccccc1 | 5.78 | 
41 | CC(C)CCn1c(=O)ccc2cnc(Nc3ccccc3)nc21 | 6.80 | 
42 | CCn1c(=O)ccc2cnc(NCc3ccccc3)nc21 | < 4.40 | 
43 | CC(C)CCn1c(=O)ccc2cnc(Nc3ccc(N4CCN(C)CC4)cc3)nc21 | 7.89 | 
